Test results taken from ChEMBL document CHEMBL3991601, “The target landscape of clinical kinase drugs” (Science, 2017).
The source made the active and inactive calls. For most assays here, no stated cut-off is given here; in the data, actives have a measured Kd and inactives only a lower limit.

Experiments:
Activin receptor type-2B = Activin receptor type-2B (Homo sapiens, UniProt Q13705)
[1] = biological target: T1, Adenine phosphoribosyltransferase (Homo sapiens, UniProt P07741)
T1 sequence (P07741 whole entry): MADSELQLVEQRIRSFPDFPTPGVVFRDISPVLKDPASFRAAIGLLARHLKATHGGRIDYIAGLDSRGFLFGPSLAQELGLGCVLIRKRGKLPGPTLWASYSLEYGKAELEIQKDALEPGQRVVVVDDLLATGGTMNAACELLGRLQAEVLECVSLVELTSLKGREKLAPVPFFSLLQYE

Aurora kinase B = Aurora kinase B (Homo sapiens, UniProt Q96GD4)
GTP-binding protein 4 = GTP-binding protein 4 (Homo sapiens, UniProt Q9BZE4)
[2] = biological target: Tyrosine-protein kinase HCK (Homo sapiens, UniProt P08631)
LIM domain kinase 1 = LIM domain kinase 1 (Homo sapiens, UniProt P53667)
LIM domain kinase 2 = LIM domain kinase 2 (Homo sapiens, UniProt P53671)
[3] = biological target: T2, Mitogen-activated protein kinase kinase kinase kinase 3 (Homo sapiens, UniProt Q8IVH8)
T2 sequence (Q8IVH8 whole entry): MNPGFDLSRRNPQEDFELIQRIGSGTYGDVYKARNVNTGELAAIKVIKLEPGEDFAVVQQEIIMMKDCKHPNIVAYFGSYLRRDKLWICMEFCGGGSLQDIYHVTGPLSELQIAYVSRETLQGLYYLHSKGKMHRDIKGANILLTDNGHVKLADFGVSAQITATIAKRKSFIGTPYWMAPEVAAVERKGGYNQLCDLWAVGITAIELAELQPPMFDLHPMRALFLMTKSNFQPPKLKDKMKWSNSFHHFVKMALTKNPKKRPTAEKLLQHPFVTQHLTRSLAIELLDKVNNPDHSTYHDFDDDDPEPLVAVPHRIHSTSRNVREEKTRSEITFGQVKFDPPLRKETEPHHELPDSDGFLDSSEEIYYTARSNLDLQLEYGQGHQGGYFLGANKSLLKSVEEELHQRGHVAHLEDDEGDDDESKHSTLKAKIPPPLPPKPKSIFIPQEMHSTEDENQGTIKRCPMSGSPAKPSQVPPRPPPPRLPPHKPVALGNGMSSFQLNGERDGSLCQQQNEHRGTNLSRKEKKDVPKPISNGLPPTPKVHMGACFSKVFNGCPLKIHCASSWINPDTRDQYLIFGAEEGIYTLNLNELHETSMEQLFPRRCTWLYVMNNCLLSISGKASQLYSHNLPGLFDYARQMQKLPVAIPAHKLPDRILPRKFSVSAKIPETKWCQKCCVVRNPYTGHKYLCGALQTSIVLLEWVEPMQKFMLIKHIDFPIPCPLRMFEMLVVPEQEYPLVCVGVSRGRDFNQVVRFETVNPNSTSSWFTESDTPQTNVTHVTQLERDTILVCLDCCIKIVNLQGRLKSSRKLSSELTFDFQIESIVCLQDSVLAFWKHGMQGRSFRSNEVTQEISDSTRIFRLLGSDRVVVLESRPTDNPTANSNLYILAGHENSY

[4] = biological target: Mitogen-activated protein kinase 11 (Homo sapiens, UniProt Q15759)
[5] = biological target: Mitogen-activated protein kinase 7 (Homo sapiens, UniProt Q13164)
[6] = biological target: Mitogen-activated protein kinase 8 (Homo sapiens, UniProt P45983)
[7] = biological target: T3, Phosphatidylinositol 5-phosphate 4-kinase type-2 alpha (Homo sapiens, UniProt P48426)
T3 sequence (P48426 whole entry): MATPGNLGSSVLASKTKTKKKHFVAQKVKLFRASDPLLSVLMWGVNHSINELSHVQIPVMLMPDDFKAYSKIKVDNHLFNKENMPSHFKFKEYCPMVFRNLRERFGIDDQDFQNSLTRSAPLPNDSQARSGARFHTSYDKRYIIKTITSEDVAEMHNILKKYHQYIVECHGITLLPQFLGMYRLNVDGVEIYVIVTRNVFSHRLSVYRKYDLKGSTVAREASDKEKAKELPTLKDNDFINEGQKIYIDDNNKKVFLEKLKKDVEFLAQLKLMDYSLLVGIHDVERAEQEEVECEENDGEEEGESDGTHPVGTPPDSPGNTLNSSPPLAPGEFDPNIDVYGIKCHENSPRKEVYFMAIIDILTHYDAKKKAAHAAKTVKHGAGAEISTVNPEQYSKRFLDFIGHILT

[8] = biological target: 5'-AMP-activated protein kinase catalytic subunit alpha-1 (Homo sapiens, UniProt Q13131)
[9] = biological target: Protein-tyrosine kinase 6 (Homo sapiens, UniProt Q13882)
[10] = biological target: Rho-associated protein kinase 1 (Homo sapiens, UniProt Q13464)
[11] = biological target: T4, Succinate--CoA ligase [ADP-forming] subunit beta, mitochondrial (Homo sapiens, UniProt Q9P2R7)
T4 sequence (Q9P2R7 whole entry): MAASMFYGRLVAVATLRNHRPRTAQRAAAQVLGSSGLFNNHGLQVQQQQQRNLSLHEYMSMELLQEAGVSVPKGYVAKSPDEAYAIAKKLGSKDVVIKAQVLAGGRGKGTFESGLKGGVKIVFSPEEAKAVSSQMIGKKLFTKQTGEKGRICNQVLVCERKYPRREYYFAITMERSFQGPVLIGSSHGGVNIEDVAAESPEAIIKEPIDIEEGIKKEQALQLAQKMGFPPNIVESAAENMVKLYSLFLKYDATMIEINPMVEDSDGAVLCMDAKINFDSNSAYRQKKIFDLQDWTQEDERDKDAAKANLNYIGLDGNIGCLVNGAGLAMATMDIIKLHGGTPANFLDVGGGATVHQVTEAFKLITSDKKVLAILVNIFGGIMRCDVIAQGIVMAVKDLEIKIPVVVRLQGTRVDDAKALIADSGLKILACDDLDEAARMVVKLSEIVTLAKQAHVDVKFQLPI

[12] = biological target: PAS domain-containing serine/threonine-protein kinase (Homo sapiens, UniProt Q96RG2)

Sequence of LIM domain kinase 2 (P53671 whole entry, the tested form may be a part): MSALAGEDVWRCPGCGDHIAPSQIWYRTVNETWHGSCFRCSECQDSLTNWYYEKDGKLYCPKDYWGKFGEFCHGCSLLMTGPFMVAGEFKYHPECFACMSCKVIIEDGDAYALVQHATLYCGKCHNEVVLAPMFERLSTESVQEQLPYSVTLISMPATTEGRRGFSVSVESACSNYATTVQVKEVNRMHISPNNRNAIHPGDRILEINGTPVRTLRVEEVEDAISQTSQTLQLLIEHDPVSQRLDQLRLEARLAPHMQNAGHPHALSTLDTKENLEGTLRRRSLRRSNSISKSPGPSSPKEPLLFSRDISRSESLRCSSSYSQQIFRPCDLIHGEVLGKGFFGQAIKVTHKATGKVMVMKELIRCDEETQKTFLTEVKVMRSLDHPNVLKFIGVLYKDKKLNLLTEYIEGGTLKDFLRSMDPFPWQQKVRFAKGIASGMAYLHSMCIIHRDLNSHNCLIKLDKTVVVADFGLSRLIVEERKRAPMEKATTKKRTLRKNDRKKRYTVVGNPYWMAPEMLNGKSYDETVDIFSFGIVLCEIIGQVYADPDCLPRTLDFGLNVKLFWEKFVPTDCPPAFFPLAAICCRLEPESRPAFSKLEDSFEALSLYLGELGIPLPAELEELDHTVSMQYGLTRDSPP
Sequence of Activin receptor type-2B (Q13705 whole entry): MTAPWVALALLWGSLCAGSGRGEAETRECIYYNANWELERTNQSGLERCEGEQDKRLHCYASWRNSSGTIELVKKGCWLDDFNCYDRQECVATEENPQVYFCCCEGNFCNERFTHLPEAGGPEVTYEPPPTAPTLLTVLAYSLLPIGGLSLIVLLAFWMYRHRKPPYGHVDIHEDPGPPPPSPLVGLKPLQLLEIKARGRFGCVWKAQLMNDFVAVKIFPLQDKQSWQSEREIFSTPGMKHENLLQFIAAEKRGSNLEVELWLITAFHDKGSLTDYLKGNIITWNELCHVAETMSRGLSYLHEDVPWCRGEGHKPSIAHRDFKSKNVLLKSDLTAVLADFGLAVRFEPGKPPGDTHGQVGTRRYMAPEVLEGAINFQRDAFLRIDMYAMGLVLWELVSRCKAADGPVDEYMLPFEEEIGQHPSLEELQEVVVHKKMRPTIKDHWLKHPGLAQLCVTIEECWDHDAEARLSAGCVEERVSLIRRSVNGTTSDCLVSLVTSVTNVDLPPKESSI
Sequence of Mitogen-activated protein kinase 11 (Q15759 whole entry): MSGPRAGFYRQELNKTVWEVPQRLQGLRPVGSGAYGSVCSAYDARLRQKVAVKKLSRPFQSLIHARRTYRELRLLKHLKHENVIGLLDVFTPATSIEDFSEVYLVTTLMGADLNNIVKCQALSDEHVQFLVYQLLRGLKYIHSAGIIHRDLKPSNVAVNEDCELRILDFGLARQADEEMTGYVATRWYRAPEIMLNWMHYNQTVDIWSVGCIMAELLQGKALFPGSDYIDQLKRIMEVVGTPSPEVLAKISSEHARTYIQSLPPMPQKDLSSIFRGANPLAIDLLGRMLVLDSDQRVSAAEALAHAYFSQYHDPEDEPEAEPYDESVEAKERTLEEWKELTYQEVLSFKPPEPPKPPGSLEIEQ
Sequence of Protein-tyrosine kinase 6 (Q13882 whole entry): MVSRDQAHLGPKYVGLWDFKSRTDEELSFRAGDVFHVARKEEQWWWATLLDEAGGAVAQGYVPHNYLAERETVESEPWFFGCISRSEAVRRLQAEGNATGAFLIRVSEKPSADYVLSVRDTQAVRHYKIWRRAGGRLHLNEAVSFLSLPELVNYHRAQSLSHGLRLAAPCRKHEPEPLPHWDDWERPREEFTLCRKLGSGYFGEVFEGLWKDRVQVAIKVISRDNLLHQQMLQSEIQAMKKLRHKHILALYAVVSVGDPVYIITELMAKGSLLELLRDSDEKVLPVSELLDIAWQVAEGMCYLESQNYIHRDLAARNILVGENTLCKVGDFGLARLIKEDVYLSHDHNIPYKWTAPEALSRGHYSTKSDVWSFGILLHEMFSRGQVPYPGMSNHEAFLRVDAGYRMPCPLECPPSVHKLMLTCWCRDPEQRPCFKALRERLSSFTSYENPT
Sequence of Rho-associated protein kinase 1 (Q13464 whole entry): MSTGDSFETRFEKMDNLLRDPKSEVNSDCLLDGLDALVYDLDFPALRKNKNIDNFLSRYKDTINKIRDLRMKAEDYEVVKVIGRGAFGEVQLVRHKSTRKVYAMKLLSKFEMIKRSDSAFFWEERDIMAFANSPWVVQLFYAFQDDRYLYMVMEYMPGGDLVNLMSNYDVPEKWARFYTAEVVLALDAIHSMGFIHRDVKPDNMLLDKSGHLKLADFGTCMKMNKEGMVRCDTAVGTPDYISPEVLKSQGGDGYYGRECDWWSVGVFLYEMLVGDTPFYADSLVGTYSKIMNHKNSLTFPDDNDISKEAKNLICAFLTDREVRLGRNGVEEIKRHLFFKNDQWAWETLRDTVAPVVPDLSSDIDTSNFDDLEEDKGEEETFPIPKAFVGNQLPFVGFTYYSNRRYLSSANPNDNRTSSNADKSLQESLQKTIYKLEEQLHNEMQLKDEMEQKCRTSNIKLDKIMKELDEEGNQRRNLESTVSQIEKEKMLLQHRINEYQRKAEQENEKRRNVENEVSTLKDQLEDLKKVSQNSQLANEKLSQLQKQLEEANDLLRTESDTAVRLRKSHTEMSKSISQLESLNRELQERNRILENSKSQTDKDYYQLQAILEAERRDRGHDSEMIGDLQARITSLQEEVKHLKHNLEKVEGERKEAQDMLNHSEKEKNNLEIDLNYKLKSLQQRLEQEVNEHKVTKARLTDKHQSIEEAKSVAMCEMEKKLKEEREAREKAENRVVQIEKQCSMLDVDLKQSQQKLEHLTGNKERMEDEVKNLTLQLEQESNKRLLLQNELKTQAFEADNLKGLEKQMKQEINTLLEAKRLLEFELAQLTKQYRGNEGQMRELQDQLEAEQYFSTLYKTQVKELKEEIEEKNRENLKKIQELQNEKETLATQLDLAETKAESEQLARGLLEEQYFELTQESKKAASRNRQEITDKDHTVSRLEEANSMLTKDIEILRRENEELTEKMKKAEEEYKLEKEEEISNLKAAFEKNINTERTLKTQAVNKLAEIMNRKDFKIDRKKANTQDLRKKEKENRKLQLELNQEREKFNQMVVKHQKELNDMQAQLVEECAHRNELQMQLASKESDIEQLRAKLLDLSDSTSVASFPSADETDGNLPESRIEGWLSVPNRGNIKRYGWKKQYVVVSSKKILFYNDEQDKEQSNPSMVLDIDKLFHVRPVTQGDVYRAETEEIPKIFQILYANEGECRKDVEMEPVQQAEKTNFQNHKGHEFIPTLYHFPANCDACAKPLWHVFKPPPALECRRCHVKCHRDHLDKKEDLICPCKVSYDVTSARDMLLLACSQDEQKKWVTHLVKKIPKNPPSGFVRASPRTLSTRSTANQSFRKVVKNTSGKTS
Sequence of Mitogen-activated protein kinase 7 (Q13164 whole entry): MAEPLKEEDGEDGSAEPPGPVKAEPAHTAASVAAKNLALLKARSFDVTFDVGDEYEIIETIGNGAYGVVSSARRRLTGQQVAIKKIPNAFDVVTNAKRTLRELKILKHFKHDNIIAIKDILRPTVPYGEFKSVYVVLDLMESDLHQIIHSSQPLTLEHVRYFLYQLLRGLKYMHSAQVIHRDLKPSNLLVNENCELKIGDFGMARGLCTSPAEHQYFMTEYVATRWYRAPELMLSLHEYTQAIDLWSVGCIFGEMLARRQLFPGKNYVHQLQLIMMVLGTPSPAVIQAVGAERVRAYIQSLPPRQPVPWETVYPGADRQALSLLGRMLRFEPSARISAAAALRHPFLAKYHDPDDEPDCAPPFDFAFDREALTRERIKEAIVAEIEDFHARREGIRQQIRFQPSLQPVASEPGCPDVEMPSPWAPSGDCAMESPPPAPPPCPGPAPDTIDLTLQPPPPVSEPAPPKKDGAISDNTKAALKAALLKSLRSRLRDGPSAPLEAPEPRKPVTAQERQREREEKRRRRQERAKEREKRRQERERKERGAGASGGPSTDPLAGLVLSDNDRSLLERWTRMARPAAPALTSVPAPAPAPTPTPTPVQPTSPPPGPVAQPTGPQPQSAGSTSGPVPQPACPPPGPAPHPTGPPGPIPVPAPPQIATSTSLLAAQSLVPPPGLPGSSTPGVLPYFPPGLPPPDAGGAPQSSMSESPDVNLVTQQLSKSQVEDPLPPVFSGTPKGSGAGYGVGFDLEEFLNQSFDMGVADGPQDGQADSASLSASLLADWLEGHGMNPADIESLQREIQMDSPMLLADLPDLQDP
Sequence of Tyrosine-protein kinase HCK (P08631 whole entry, the tested form may be a part): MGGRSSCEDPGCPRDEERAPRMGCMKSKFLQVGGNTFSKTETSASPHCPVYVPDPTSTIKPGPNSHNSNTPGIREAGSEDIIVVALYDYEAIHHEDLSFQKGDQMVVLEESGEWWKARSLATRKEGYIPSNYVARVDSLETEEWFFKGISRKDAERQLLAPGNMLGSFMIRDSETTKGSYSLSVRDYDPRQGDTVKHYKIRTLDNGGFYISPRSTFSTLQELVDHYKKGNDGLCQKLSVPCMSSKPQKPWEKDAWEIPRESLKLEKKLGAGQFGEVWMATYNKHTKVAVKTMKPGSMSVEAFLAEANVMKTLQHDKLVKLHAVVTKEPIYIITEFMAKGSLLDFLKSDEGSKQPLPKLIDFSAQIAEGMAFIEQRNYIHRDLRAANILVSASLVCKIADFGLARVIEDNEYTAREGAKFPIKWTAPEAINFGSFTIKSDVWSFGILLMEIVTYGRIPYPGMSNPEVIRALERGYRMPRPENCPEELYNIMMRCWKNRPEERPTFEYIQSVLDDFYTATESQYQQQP
Sequence of Aurora kinase B (Q96GD4 whole entry): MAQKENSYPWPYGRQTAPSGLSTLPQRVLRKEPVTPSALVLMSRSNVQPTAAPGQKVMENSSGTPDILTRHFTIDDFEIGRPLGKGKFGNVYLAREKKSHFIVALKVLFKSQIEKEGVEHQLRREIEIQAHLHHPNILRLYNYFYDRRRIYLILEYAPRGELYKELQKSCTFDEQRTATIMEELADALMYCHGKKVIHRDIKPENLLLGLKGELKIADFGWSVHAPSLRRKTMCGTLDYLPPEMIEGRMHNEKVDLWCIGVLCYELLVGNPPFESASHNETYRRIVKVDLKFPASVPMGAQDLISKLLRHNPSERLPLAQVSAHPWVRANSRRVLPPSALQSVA

| Kd (Activin receptor type-2B) | Kd [1] | Kd (Aurora kinase B) | Kd (GTP-binding protein 4) | Kd [2] | Kd (LIM domain kinase 1) | Kd (LIM domain kinase 2) | Kd [3] | Kd [4] | Kd [5] | Kd [6] | Kd [7] | Kd [8] | Kd [9] | Kd [10] | Kd [11] | Structure (SMILES) | Kd [12] |
| --- | --- | --- | --- | --- | --- | --- | --- | --- | --- | --- | --- | --- | --- | --- | --- | --- | --- |
| > 30 µM (inactive) | > 30 µM (inactive) | > 30 µM (inactive) | > 30 µM (inactive) | > 30 µM (inactive) | > 30 µM (inactive) | > 30 µM (inactive) | > 30 µM (inactive) | > 30 µM (inactive) | > 30 µM (inactive) | > 30 µM (inactive) | > 30 µM (inactive) | > 30 µM (inactive) | > 30 µM (inactive) | > 30 µM (inactive) | > 30 µM (inactive) | CCn1c(C(=O)N(C2CC2)C2CC2)cc2c3c(ncn3C)c(Nc3cc(C)n(C)n3)nc21 [BMS-911543] | – |
| > 30 µM (inactive) | > 30 µM (inactive) | > 30 µM (inactive) | > 30 µM (inactive) | > 30 µM (inactive) | > 30 µM (inactive) | > 30 µM (inactive) | > 30 µM (inactive) | > 30 µM (inactive) | 9.85 µM (active) | > 30 µM (inactive) | > 30 µM (inactive) | > 30 µM (inactive) | > 30 µM (inactive) | > 30 µM (inactive) | > 30 µM (inactive) | Cc1cc(Nc2ncc(Cl)c(Nc3ccccc3S(=O)(=O)C(C)C)n2)c(OC(C)C)cc1C1CCNCC1 [CERITINIB] | – |
| > 30 µM (inactive) | > 30 µM (inactive) | > 30 µM (inactive) | > 30 µM (inactive) | > 30 µM (inactive) | > 30 µM (inactive) | > 30 µM (inactive) | > 30 µM (inactive) | > 30 µM (inactive) | > 30 µM (inactive) | > 30 µM (inactive) | > 30 µM (inactive) | > 30 µM (inactive) | > 30 µM (inactive) | > 30 µM (inactive) | > 30 µM (inactive) | COCC(=O)NC/C=C/c1ccc2ncnc(Nc3ccc(Oc4ccc(C)nc4)c(C)c3)c2c1 [CP-724714] | – |
| – | – | 0.371 µM (active) | > 30 µM (inactive) | > 30 µM (inactive) | > 30 µM (inactive) | > 30 µM (inactive) | – | > 30 µM (inactive) | > 30 µM (inactive) | – | > 30 µM (inactive) | > 30 µM (inactive) | 8.19 µM (active) | > 30 µM (inactive) | – | CCn1cc(-c2ccnc3[nH]c(-c4cccc(CN(C)C)c4)cc23)c(-c2ccc(NC(=O)N(C)C)cc2)n1 [GSK-1070916] | > 30 µM (inactive) |
| > 30 µM (inactive) | > 30 µM (inactive) | > 30 µM (inactive) | > 30 µM (inactive) | > 30 µM (inactive) | > 30 µM (inactive) | > 30 µM (inactive) | > 30 µM (inactive) | > 30 µM (inactive) | > 30 µM (inactive) | > 30 µM (inactive) | > 30 µM (inactive) | > 30 µM (inactive) | > 30 µM (inactive) | > 30 µM (inactive) | > 30 µM (inactive) | CN(C[C@@H]1COCCO1)S(=O)(=O)Nc1ccc2ccc3ncc(-c4cnn(C)c4)cc3c(=O)c2c1 [MK-2461] | – |

| Structure (SMILES) | Kd (Activin receptor type-2B) | Kd [1] | Kd (Aurora kinase B) | Kd (GTP-binding protein 4) | Kd [2] | Kd (LIM domain kinase 1) | Kd (LIM domain kinase 2) | Kd [3] | Kd [4] | Kd [5] | Kd [6] | Kd [7] | Kd [8] | Kd [9] | Kd [10] | Kd [11] | Kd [12] |
| --- | --- | --- | --- | --- | --- | --- | --- | --- | --- | --- | --- | --- | --- | --- | --- | --- | --- |
| O=C(Nc1nc2cccc(-c3ccc(CN4CCS(=O)(=O)CC4)cc3)n2n1)C1CC1 [FILGOTINIB] | > 30 µM (inactive) | > 30 µM (inactive) | > 30 µM (inactive) | > 30 µM (inactive) | > 30 µM (inactive) | > 30 µM (inactive) | > 30 µM (inactive) | > 30 µM (inactive) | > 30 µM (inactive) | > 30 µM (inactive) | > 30 µM (inactive) | > 30 µM (inactive) | > 30 µM (inactive) | > 30 µM (inactive) | > 30 µM (inactive) | > 30 µM (inactive) | – |
| CN1CCN(CCOc2cc(OC3CCOCC3)c3c(Nc4c(Cl)ccc5c4OCO5)ncnc3c2)CC1 [SARACATINIB] | 3.88 µM (active) | – | > 30 µM (inactive) | – | 0.1 µM (active) | > 30 µM (inactive) | > 30 µM (inactive) | > 30 µM (inactive) | > 30 µM (inactive) | > 30 µM (inactive) | > 30 µM (inactive) | > 30 µM (inactive) | > 30 µM (inactive) | 0.566 µM | > 30 µM (inactive) | – | > 30 µM (inactive) |
